# Key:
# [1] = system: HIV-1ROJO; experiment: Antiviral activity in infected PBMCs (reverse transcriptase in supernatant); type: cell-based
# Experimental: (§1) The activity of the certain compounds of the invention was evaluated in peripheral blood mononuclear cells (PBMCs) infected with the low passage, clinical isolate HIV-1ROJO to generate a measure of the efficacy of these compounds in acutely infected cells. The use of these normal human cells allows an estimate of the therapeutic index of these compounds to be made. Fresh PBMCs from two donors were pooled and stimulated with PHA-P for 48-72 hours. The cells were then cultured in the presence of IL-2 to maintain the cell division initiated by the mitogenic signal. The virus was added at a multiplicity of infection of 0.1. The cells were cultured for 7 days post infection prior to the evaluation of efficacy. Viral replication was measured by the level of reverse transcriptase activity in the supernatant and cytotoxicity was measured with the MTS assay.
# [2] = system: peripheral blood mononuclear cells (PBMCs); experiment: Cytotoxicity in PBMCs (MTS assay); type: cell-based, human; conditions: read-out: TC50 (μM): 50% cytoxicity (MTS), 7 days
# Experimental: as §1
# [3] = system: HCT-116 cells; experiment: Cell cycle analysis with propidium iodide (FACS); type: cell-based, human; conditions: exposure 24, 48 and 72 hours
# Experimental: The percentage of cells in the G1, S and G2/M phases of the cell cycle was determined by staining DNA with propidium iodide and quantifying the number of cells with a 2N or 4N DNA complement by flow cytometry. Alterations in the distribution of cells across the cell cycle in response to exposure to the Cdk inhibitors was evaluated in this manner.
# 3 sets of HCT-116 cells (100,000 cells/set) were cultured in the presence of a test compound in T-25 flasks according to Table 1 below. Analysis was performed at 24, 48 and 72 hours. Adherent cells were collected by trypsinization, combined with floating cells in Falcon 12×75 flow cytometric tubes, and harvested by centrifugation. The media was decanted from the cell pellet, 100 μl of PI stain was added and the cells were incubated at 37° C. for 20-25 minutes. The cell count was preferably no greater than 2×10^6-4×10^6/ml. An equal volume (100 μl) of PI salt was then added to the cells, which were then incubated at 4° C. for 1-2 hours. The stained cells were analyzed on a Becton Dickinson FACScan flow cytometer. Samples were protected from light.
# [4] = system: HCT-116 cells; experiment: Calcein AM viability assay, HCT-116; type: cell-based; conditions: Homo sapiens, non-protein adjusted, Table 6
# Experimental: The potency of Cdk inhibitors, as measured by loss of cellular viability, was determined with the Calcein AM assay (Molecular Probes). Calcein AM is a substrate of intracellular esterases, which is cleaved only in viable cells to generate a fluorescent product that can be quantified with a fluorescent plate reader. The fluorescent signal is proportional to the number of viable cells, and thus loss of signal in response to the exposure of cells to Cdk inhibitors correlates with a loss of viability. This assay can distinguish cell cycle arrest, in which cells may still by viable, from loss of viability and is thus well suited for the evaluation of Cdk inhibitors. A compound that is a potent cytotoxic, may cause significant loss of cell viability in such assay.
# Cellular IC50's were determined in the human colorectal carcinoma cell line, HCT-116, and the normal human fibroblast, IMR90. Protein adjusted IC50's were also determined in HCT-116.
# HCT-116 or IMR90 cells were recovered from sub-confluent plates by trypsinization and 1,000 or 4,000 cells, respectively, were plated in 24-well dishes and incubated overnight at 37° C., 5% CO2. […]
# A 5 μM Calcein AM solution was prepared by dissolving a 50 μg aliquot of Calcein (Molecular Probes catalog #C3100) in 50 μl DMSO. […] (protected from light) and the fluorescent signal was read on a fluorescent plate reader (excitation 485/20 and emission 530/25).
# [5] = system: HCT-116 cells; experiment: Clonogenic survival assay with HCT-116 cells; type: cell-based, human; conditions: at 100 nM, time-course (FIG. 3)
# Experimental: This assay was used to determine the concentration of a compound that results irreversible loss of viability after a specified period of exposure. Essentially, cells are exposed to compound for a period of 1, 2 or 5 days, and are then transferred to compound-free growth medium. After continued incubation in the compound-free medium for a number of days, the number of colonies recovered is counted as an estimate of the number of surviving cells.
# Media (RPMI-1640, 10% FCS, pen/strep) was pre-warmed to 37° C. in a water bath. Cells were incubated and grown at 37° C., 5% CO2. Cells were recovered by trypsinization from sub-confluent plates and counted using a hemocytometer. 1×10^4 cells were plated in 25 mls of media in a 15 cm tissue culture dish. 14 plates were set up for each test compound, and were incubated overnight at 37° C. The compound was diluted into media at 7 concentrations and the media on the cells was replaced with that containing the test compound. Two plates were set up for each concentration of the compound to be tested, as well as two control plates without compound. […] Colonies were stained with crystal violet solution (0.4% crystal violet, 20% ethanol) for 5 minutes, washed twice with distilled water, and counted.
Structure (SMILES),TI: TC50/IC50 [1],other results
"Cc1cn([C@H]2C[C@H](N=[N+]=[N-])[C@@H](CO)O2)c(=O)[nH]c1=O [AZT, reference compound]",>100,CC50 [2]: > 1 µM
CC(C)c1nn(-c2c(Cl)cccc2Cl)c2nc(Cc3ccc(OCCN4CCOCC4)c(O)c3)[nH]c(=O)c12 [Compound A32],>10,
CC(C)N1CCN(C(=O)COc2ccc(-c3[nH]nc4c3C(=O)c3c(NC(=O)NN5CCOCC5)cccc3-4)cc2)CC1.Cl [Compound A37],,"effect on cell cycle distribution (PI FACS) [3]: terminally arrested in G1 and G2, with evidence of apoptosis and endo-reduplication"
CC(C)c1nn(-c2c(Cl)cc(Cl)cc2Cl)c2nc(Cc3ccc(OCCO)cc3)[nH]c(=O)c12 [Compound A61],>10,
CC(C)c1nn(-c2c(Cl)cc(Cl)cc2Cl)c2nc(Cc3ccc(OCC(C)(C)O)cc3)[nH]c(=O)c12 [Compound A64],>10,
O=C(Nc1cccc2c1C(=O)c1c(-c3ccc(CN4CCCC4CO)cc3)n[nH]c1-2)NN1CCOCC1 (centres unmarked) [Compound B6],,IC50 [4]: < 0.1 µM
COCCN1CCN(Cc2ccc(-c3[nH]nc4c3C(=O)c3c(NC(=O)NN5CCOCC5)cccc3-4)cc2)CC1.Cl.Cl [Compound B16],,time within which IC50 reached [5]: 30 to 60 min; effect on cell cycle distribution (PI FACS) [3]: Analogous results
CC(C)c1nn(-c2c(Cl)cccc2Cl)c2nc(Cc3ccc(CN4CCCC4)c(O)c3)[nH]c(=O)c12.Cl [Compound C3],>10,
CC(C)c1nn(-c2c(Cl)cc(Cl)cc2Cl)c2nc(Cc3ccc(CNC(CO)CO)n3C)[nH]c(=O)c12.Cl [Compound C4],>1,

# Source: US8097619B2, “Inhibitors of cyclin-dependent kinases, compositions and uses related thereto” (Agennix USA Inc., priority 2003, dated 2012)
